Data on nine compounds can be found in article PMC9839752, “Formaldehyde reacts with N-terminal proline residues to give bicyclic aminals” (Communications Chemistry, 2023).

The nature of data set [1]: NMR stability of HCHO adducts to HCHO scavengers and pH. It is filed as physicochemical. To be noted: for stability of HCHO adduct to 1,3-cyclohexanedione (1,3-CHD): 40-fold excess 1,3-CHD, pD 10, analysis period 22 h. The protocol: To investigate the stability and reversibility of the HCHO adducts (1a + b, 2a, 3a, 4a), the dipeptides were reacted with a 10-fold excess of HCHO at pD 10, then treated with the HCHO scavenger 1,3-cyclohexanedione (1,3-CHD)[14]. […]
(§1) NMR Time Course and Stability – Dipeptides
(§2) The dipeptide (23.3 µmol) was dissolved in D 2O; the pD was adjusted to 10 (corresponding to pH 9.6) using NaOD and DCl (total volume: 1 mL, 23.3 mM stock). HCHO (30.0 mg, 1.0 mmol) was suspended with D2O in a sealed microwave vial and heated until a clear colourless solution was obtained; the pD was then adjusted with NaOD and DCl to 10 (total volume: 3 mL, 1/3 M stock). For time course measurements, the dipeptide stock solutions (100 μL, 2.33 μmol) at pD 10 and D 2O (400 μL) were mixed and recorded. HCHO (70 μL, 23.3 μmol, 10 equivalents) at pD 10 was added and progress was monitored for the indicated time. To investigate the stability of the NMR-observed HCHO adducts, a 40-fold excess with respect to starting material of the HCHO scavenger 1,3-cyclohexanedione (1,3-CHD, 93.2 μL from 1 M stock in D2O) was added.
Additionally, stability studies of the HPLC -purified 2a and the corresponding pentapeptide PEPAK-HCHO adduct were conducted. To achieve a 40-fold excess of HCHO scavengers (46.8 μmol) with respect to peptide starting material, the appropriate volumes of GSH (186.4 μL from 250 mM stock), cysteine (46.6 μL from 1 M stock) or 1,3 -cyclohexanedione (46.6 μL from 1 M stock) were added to the peptide-HCHO adducts (50 μL, 1.17 μmol, 23.3 mM stock in D2O) in 400 μL of D2O, thoroughly mixed and recorded. To test for stability of the adduct in different pH conditions, HPLC purified 2a (45 μL of 23.3 mM stock) was dissolved in 405 μL of 50 mM potassium phosphate buffer (D2O) at pH 5.9, 7.4 and 8.5 (pD 6.3, 7.8 and 8.9), thoroughly mixed and recorded.

Data set [2] is described as follows: 1H NMR time course of reaction of dipeptides with HCHO. It is filed as physicochemical. To be noted: dipeptide with 10-fold excess HCHO, pD 10, 1H NMR. The method, then:
Fig. 3 HCHO reacts with an N-terminal proline to form a methylene bridge between an N-terminal nitrogen and the adjacent peptide bond nitrogen. a Products of reactions between HCHO and the dipeptides AzeGlu (n = 1, 1), ProGlu (n = 2, 2), and PipGlu (n = 3, 3). A 10-fold molar excess of aqueous HCHO (410 µmol) was added to each dipeptide (41 µmol).
The reactions of the dipeptides with HCHO (10-fold excess, pD 10) were studied in real time by ^1H NMR (Figs. 3c and S18). […] Dipeptide 2 was slower to react (2a formation rate 0.24 μM s^−1), while 3 was the slowest to react (3a formation rate 0.054 μM s^−1). […]
as §1
as §2, with “added. […]” for “added.”

Data set [3] has as its target T1, 4-OT (Pseudomonas putida, UniProt Q01468). The data set is described as follows: cell-based.
Data set [4] addresses T2, 4-oxalocrotonate tautomerase (4-OT) (Pseudomonas putida, UniProt Q01468). Particulars: 4-OT (52.9 µM) pre-incubated with 200 equivalents of HCHO (10.6 mM) 17 h, 37 °C; buffer control complete after 14 min.
For a further data set, the system named is H2B mRNA. To be noted: HEK293T, HCHO 150+225 µM vs untreated, q = 0.043. The method, then: (§3) We then investigated whether the H2B-HCHO adduct can be identified in human HEK293T cells treated with HCHO. […] Given that N-terminal amino acids and their modifications can regulate protein stability by affecting degradation (the N-end rule)[27], we next investigated whether addition of HCHO to cells affects H2B turnover. HEK293T cells were treated with cycloheximide (CHX) to inhibit protein synthesis, with addition of HCHO and protein quantification.
(§4) Figure S26 | Stability of proteins with an N-terminal proline in the presence of HCHO and RNA-Seq analyses. a) HEK293T cells were treated with 120 µM HCHO (or acetone, or MQ water control; 100 mM stock solutions of carbonyl compounds in MQ water) for 14 h. The cells were then treated with 100 µM cycloheximide (CHX; from a 100 mM DMSO stock solution) and were harvested after 3 h.
(§5) Additionally, HEK293T cells were treated with 120 µM HCHO (or acetone, or MQ water control) for 14 h, followed by addition of CHX. 7.5 h after the CHX treatment, a further 180 µM of the carbonyl […]
(§6) (1 picture or pasted object on this page, not shown here)
(§7) (ab133512). Secondary antibodies used were anti-mouse IgG, HRP-linked Antibody (Cell Signaling, reference 7076), anti-Rabbit IgG (H+L) HRP Conjugate (Promega reference W4011).
HEK293T cells (0.9x106) were seeded into 6 cm dishes as biological triplicates. […]

For data set [5], the target named is T2, 4-oxalocrotonate tautomerase (4-OT). Nature of the data set: biochemical.
The next data set has as its system H3 mRNA. Particulars: HEK293T, HCHO-treated vs untreated, q = 0.034. The protocol: as §3, §7
(§8) HEK293T cells (0.9x106) were seeded into 6 cm dishes as biological triplicates. The next day, cells were treated with 150 μM HCHO (or MQ water control), followed by another cumulative treatment of 225 μM HCHO (or MQ water control) the day after that. Cells were harvested 4 h af ter the second

A further data set concerns H2A mRNA. Particulars: HEK293T, HCHO-treated vs untreated, q = 0.043. The method, then:
as §3, §7, §8

A further data set deals with H3. To be noted: HEK293T, HCHO, CHX (100 µM). The protocol: as §3, §4, §5, §6
The test system of another data set is H2A. Particulars: HEK293T, HCHO, CHX (100 µM). The protocol: as §3, §4, §5, §6
The next data set deals with H2B. To be noted: HEK293T, HCHO, >10 h CHX (100 µM). The method, then: as §3, §4, §5, §6
The target in data set [6] is leukotriene A-4 hydrolase (LTA4H) (Homo sapiens, UniProt P09960). Particulars: HEK293T, CHX (100 µM). The method, then:
as §3, §4, §5, §6

A further data set can be described thus: in vitro. To be noted: human, hek293t cells. The protocol:
as §3, §6

For the next data set, the target named is T3, human JmjC KDM KDM4E (Homo sapiens, UniProt B2RXH2).
T3 construct: made in house; host or cells: E. coli BL21(DE3)
T3 sequence (B2RXH2 with tags, fused parts or gaps): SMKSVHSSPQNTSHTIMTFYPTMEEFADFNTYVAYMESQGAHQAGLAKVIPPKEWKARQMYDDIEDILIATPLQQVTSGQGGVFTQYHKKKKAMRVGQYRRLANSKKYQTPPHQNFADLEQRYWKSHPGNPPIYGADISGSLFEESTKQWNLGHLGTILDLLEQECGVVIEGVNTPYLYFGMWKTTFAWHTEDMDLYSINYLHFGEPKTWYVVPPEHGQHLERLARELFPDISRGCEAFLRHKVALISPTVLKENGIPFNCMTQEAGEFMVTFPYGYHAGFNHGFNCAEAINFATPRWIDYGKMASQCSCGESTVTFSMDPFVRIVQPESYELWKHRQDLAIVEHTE
Nature of the data set: KDM4E-catalysed H3K9Me3 peptide demethylation, MALDI MS. In kind it is biochemical. Particulars: 800 μM NOG instead of 2OG, 24 h.

Data set [7] deals with T1, 4-OT. Nature of the data set: 4-OT absorbance assay (320 nm), kinetic parameters. It is filed as biochemical. To be noted: substrate acetaldehyde, 375 µM trans-β-nitrostyrene, 10 µM 4-OT, pH 7.4.

Where two headings read alike, the source gives them in different places. Peptide text beside a SMILES is read from it.

T1 sequence (Q01468 2-63 limits assumed): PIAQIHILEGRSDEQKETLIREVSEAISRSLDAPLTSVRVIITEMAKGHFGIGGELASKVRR
T2 sequence (Q01468 2-63): as the sequence (Q01468 2-63 limits assumed) above
leukotriene A-4 hydrolase (LTA4H), sequence (P09960 2-611 limits assumed): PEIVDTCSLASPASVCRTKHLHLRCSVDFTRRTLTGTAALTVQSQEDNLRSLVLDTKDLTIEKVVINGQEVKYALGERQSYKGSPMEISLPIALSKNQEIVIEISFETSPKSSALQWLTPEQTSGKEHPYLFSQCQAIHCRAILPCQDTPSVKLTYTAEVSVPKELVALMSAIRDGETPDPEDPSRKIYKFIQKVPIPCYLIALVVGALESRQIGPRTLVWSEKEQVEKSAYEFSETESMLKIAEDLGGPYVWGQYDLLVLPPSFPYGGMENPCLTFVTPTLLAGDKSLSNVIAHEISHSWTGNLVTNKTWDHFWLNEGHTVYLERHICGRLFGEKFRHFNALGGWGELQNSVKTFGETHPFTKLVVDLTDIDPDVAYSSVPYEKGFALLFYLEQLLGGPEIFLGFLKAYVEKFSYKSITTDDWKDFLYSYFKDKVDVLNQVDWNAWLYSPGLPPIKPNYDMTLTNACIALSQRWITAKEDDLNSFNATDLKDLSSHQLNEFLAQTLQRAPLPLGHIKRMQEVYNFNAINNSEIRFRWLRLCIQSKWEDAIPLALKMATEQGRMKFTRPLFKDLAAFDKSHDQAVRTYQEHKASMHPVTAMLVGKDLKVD

On to `O=C(O)CC[C@@H](C(=O)O)N1CN2CC[C@H]2C1=O` [1a], for which the “stability of HCHO adduct to 1,3-cyclohexanedione (1,3-CHD)” value (shortened to “stability of HCHO adduct”) in [1] is reported as “underwent 1,3-CHD-enabled reaction to give 1”. Also, in data set [2], the “formation rate of HCHO adduct” value was greater than 1.73 µM/s.

Consider `O=C(O)CC[C@H](NC(=O)[C@@H]1CCN1CO)C(=O)O` [1b], for which the “stability of HCHO adduct” value in data set [1] is reported as “underwent 1,3-CHD-enabled reaction to give 1”.

On to `O=C(O)CC[C@@H](C(=O)O)N1CN2CCC[C@H]2C1=O` [2a], for which the “stability of HCHO adduct” value in data set [1] is on record as “relatively stable”. The “stability across a biologically relevant pH range” value in [1] (pH 5.9, 7.4 and 8.5) was “apparently stable”. For the same compound, the “stability in the presence of HCHO scavengers cysteine and GSH” value in data set [1] (scavengers in 40-fold excess) is “apparently stable”. In addition, in [2], the “formation rate of HCHO adduct” value turned out to be 0.24 µM/s.

Consider `O=C(O)CC[C@@H](C(=O)O)N1CN2CCCC[C@H]2C1=O` [3a], for which, in data set [1], the “stability of HCHO adduct” value is recorded as “relatively stable”. Also, the “formation rate of HCHO adduct” value in data set [2] turned out to be 0.054 µM/s.

On to `C[C@H]1C(=O)N([C@@H](CCC(=O)O)C(=O)O)CN1CO` [4a], for which, in data set [1], the “stability of HCHO adduct” value is listed as “hemiaminal group of 4a was lost to give 4b”.

On to `C=O` [HCHO, Formaldehyde], for which the EC50 at 4-OT [3] is roughly 350 µM. Moreover, the “time to near-complete substrate conversion” value in [4] is greater than 72 min. The “H2B mRNA level, fold less in untreated cells” value with H2B mRNA was found to be 0.37 fold. In [5], the IC50 is less than 10000 µM. Moreover, the “H3 mRNA level, fold less in untreated cells” value in the data set on H3 mRNA was determined as 0.42 fold. In addition, in the data set with H2A mRNA, the “H2A mRNA level, fold less in untreated cells” value was 0.33 fold. Also, the “H3 levels after prolonged CHX treatment” value with H3 was “higher levels”. For the same compound, the “H2A levels after prolonged CHX treatment” value in the data set on H2A is “higher levels”. For the same compound, the “H2B levels after prolonged CHX treatment” value with H2B is listed as “apparently higher H2B levels”. Moreover, the “HCHO-dependent effect on LTA4H stability” value in data set [6] was “no evidence for a HCHO-dependent effect on its stability”. The “effect on cell proliferation” value in the data set with BL21(DE3) cells (350 μM HCHO) is recorded as “did not inhibit”; in the data set with BL21(DE3) cells (700 μM HCHO) it was “only mildly inhibited”. The same compound yielded an MNTC in “in vitro” greater than 200 µM.

For `O=C(O)CNC(=O)C(=O)O` [N-oxalylglycine], on human JmjC KDM KDM4E, the “effect on H3K9Me3 demethylation and +12 Da H2B adduct formation” value is given as “abolished”.

`CC=O` [acetaldehyde]: the Km at 4-OT [7] amounted to 74 mM.

In the case of `C[C@H](N)C(=O)N[C@@H](CCC(=O)O)C(=O)O` [compound 4, AlaGlu] (H-Ala-Glu-OH), the “formation rate of HCHO adduct” value in data set [2] is on record as “did not react to give a detected product”.
